In patent US20240319171A1, “METHOD FOR SCREENING SUBSTANCE, SYSTEM FOR SCREENING SUBSTANCE, METHOD FOR PRODUCING A CLUMP FROM STEM CELLS, AND METHOD FOR PRODUCING DIFFERENTIATED CELLS” (priority 2023, published 2024):

Legend:
[1] = tested on: human subject 1-derived induced fibroblasts; assay: collagen production by induced fibroblasts after adding substance (subject 1); assay type: cell-based; conditions: FIG. 14A; for amount of the collagen produced: human subject 1-derived induced fibroblasts, compared with the control in which the addition was not carried out
Excerpt: (§1) Skin cells were collected from a human subject 1 and a human subject 2, and iPS cells were induced from the skin cells from the respective subjects. Further, in the same manner as in Example 2, fibroblasts were induced from the human subject 1-derived iPS cells, and fibroblasts were induced from the human subject 2-derived iPS cells.

[2] = tested on: human subject 2-derived induced fibroblasts; assay: collagen production by induced fibroblasts after adding substance (subject 2); assay type: cell-based; conditions: compared with the control in which the addition was not carried out, FIG. 14B
Excerpt: as §1

[3] = tested on: human subject 2-derived induced fibroblasts; conditions: among phenoxyethanol, paraben, benzalkonium chloride, sodium salicylate, FIG. 15B
Protocol: In addition, phenoxyethanol, paraben, benzalkonium chloride, and sodium salicylate, which are respectively antiseptic agents, were prepared.

[4] = tested on: human subject 1-derived induced fibroblasts; assay type: cell-based

CC1=C(/C=C/C(C)=C/C=C/C(C)=C/CO)C(C)(C)CCC1 [retinol]
amount of the collagen produced [1]: increased
amount of the collagen produced [2]: increased

O=C([O-])c1ccccc1O.[Na+] [sodium salicylate]
survival rate of cells [3]: highest

O=C1O[C@H]([C@@H](O)CO)C(O)=C1O [vitamin C]
amount of the collagen produced [1]: increased
effectiveness in increasing the production amount of collagen, compared among added substances ([1]; induced fibroblasts derived from human subject 1, among vitamin C, retinol, iPS cell culture medium supernatant): most effective
amount of the collagen produced [2]: increased

OCCOc1ccccc1 [phenoxyethanol]
survival rate of cells [4]: highest
